These results are taken from article PMC8151276, “An Integrated Approach toward NanoBRET Tracers for Analysis of GPCR Ligand Engagement” (Molecules, 2021).

The test system of assay [1] is alpha-Adrenergic receptors. The assay can be described thus: Competitive displacement of Clozapine-a-2-NB590 by unmodified scaffold (NanoBRET). Type of assay: binding, human. The following applies: for NanoBRET Fold Response, other tracers/XAC (unmodified): displaced by unmodified XAC; for Interaction verified via competitive displacement of tracer: tracer Clozapine-a-2-NB590, alpha-Adrenergic receptors. How it is done:
Finally, we opted to compare the machine learning predictions for the 17 scaffolds to the empirical NanoBRET evaluations across 36 GPCR families investigated by both strategies (Figure 7). […] At the same time, empirical NanoBRET results for each scaffold were consolidated to include results for all relevant fluorescent tracer candidates screened at either 1 μM or 0.1 μM tracer concentrations. […] These additional verifications were incorporated to the comparative analysis and are also included in the compiled screening results (Supplementary Materials Excel spreadsheet).

The target of a further assay is T1, ADRB3 (Homo sapiens, UniProt P13945).
T1 construct: purchased Promega (in-house HiBiT-GPCR construct library, NanoBRET)
The assay can be described thus: NanoBRET screen HiBiT-ADRB3 in HEK293. The settings on record: ADRB3. In kind it is binding. How it is done: (§1) Each tracer candidate was screened across the entire library of HiBiT-GPCR constructs using NanoBRET as the detection modality. As depicted in Figure 4A, the specificity of interactions was evaluated through decrease in BRET due to competitive displacement of a bound tracer by excess parental compound. Each tracer was analyzed for binding to each HiBiT-GPCR fusion in the absence and in the presence of competing parental compound. Briefly, HEK293 cells were transfected with HiBiT-GPCR constructs diluted into promoterless DNA to reduce expression and maximize translocation to the cell surface. Each tracer candidate was then screened at concentrations of 1 μM and 0.1 μM across cells expressing these fusions. Cells were treated for 1.5 h with tracer either alone or in the presence of 20 μM competing parental compound (i.e., control). BRET was measured upon addition of purified LgBiT and subsequent complementation with HiBiT genetically fused to a GPCR. The specificity of interactions was assessed through a decrease in BRET signal due to competitive displacement of the bound tracer. To further gauge the robustness of these interactions, the fold response over the control (i.e., BRETtracer/BRETcontrol) was calculated. We chose a 1.5-fold response, which translates to ≥7-fold signal over noise as the minimal threshold required to score an interaction as positive.
(§2) HiBiT-GPCR DNA constructs were diluted in 10 mM Tris pH 8 to a final concentration of 0.01 μg/μL, arrayed in 96-well plates and stored at −20 °C. For transfection, HEK293 cells were suspended in Opti-MEM (without phenol red) supplemented with 2% fetal bovine serum (Seradigm) and 100 units/mL penicillin–streptomycin (Gibco) at a final concentration of 220,000 cells/mL and dispensed into white 96-well plates at 90 μL/well. Subsequent transfections and screens were carried using an Agilent Bravo Automated Liquid Handling Platform. First, the 96-well HiBiT DNA arrays were diluted 25-fold in Opti-MEM (without serum or phenol red) to a final concentration of 0.0004 μg/μL and 20 μL of the diluted DNAs were transferred into new 96-well plates. Next, promoterless carrier DNA (1 μg/μL) was diluted 25-fold (0.04 μg/μL) and then dispensed into the diluted arrays at 20 μL/well. Following brief mixing, Viafect transfection reagent (Promega) diluted 16-fold into Opti-MEM was dispensed into the plates at 40 μL/well. After mixing by pipetting, plates were incubated for 10 min on the pipetting station deck. The DNA-transfection reagent complexes were then added to plates containing cells. To facilitate the screen, 10 μL of DNA-transfection reagent complexes were added in duplicates to the top 4 and bottom 4 rows, resulting in two identical 48-well arrays per plate. Plates with transfected cells were incubated for 18–20 h at 37 °C/5% CO2. A screen of each tracer across the entire library using two different concentrations requires duplicate plates of transfected cells. Depending on the number of tracers being screened, transfections can be scaled up using the same ratios. The next day, for each tracer, four 20× screening solutions in tracer dilution buffer (Promega) were prepared: two duplicates at final concentration of 20 μM and two duplicates at a final concentration of 2 μM. […] The four resulting solutions were diluted 4-fold in Opti-MEM without serum or phenol red to generate 5× solutions (5 µM and 0.5 µM tracer +/− 100 μM competing compound). To screen the library, a BioTek MultiFlo FX liquid dispenser was used to dispense 22.5 µL of tracer solution to the top 4 rows and 22.5 µL tracer + competing compound solution to the 4 bottom rows. Plates were briefly mixed on an orbital shaker and incubated for 1.5 h at room temperature. […] Plates were briefly mixed on an orbital shaker and incubated for 15 min to allow complementation.
A general note: Bioluminescence resonance energy transfer reports proximity on the nanometre scale.

For another assay, the target named is T2, OPRM1 (Homo sapiens, UniProt P35372).
T2 construct: purchased Promega (in-house HiBiT-GPCR construct library, NanoBRET)
The assay can be described thus: NanoBRET screen HiBiT-OPRM1 in HEK293. Type of assay: binding. The following applies: OPRM1. Here is the method: as §1, §2

Another assay addresses T3, OPRK1 (Homo sapiens, UniProt P41145).
T3 construct: purchased Promega (in-house HiBiT-GPCR construct library, NanoBRET)
Put plainly: NanoBRET screen HiBiT-OPRK1 in HEK293. In kind it is binding. The following applies: OPRK1. How it is done:
as §1, with “positive. […]. Below we highlight the screening results obtained for our exemplary fluorescent tracers based on Clozapine, Amitriptyline and AZD1283.” for “positive.”
HiBiT-GPCR DNA constructs were diluted in 10 mM Tris pH 8 to a final concentration of 0.01 μg/μL, arrayed in 96-well plates and stored at −20 °C. For transfection, HEK293 cells were suspended in Opti-MEM (without phenol red) supplemented with 2% fetal bovine serum (Seradigm) and 100 units/mL penicillin–streptomycin (Gibco) at a final concentration of 220,000 cells/mL and dispensed into white 96-well plates at 90 μL/well. Subsequent transfections and screens were carried using an Agilent Bravo Automated Liquid Handling Platform. First, the 96-well HiBiT DNA arrays were diluted 25-fold in Opti-MEM (without serum or phenol red) to a final concentration of 0.0004 μg/μL and 20 μL of the diluted DNAs were transferred into new 96-well plates. Next, promoterless carrier DNA (1 μg/μL) was diluted 25-fold (0.04 μg/μL) and then dispensed into the diluted arrays at 20 μL/well. Following brief mixing, Viafect transfection reagent (Promega) diluted 16-fold into Opti-MEM was dispensed into the plates at 40 μL/well. After mixing by pipetting, plates were incubated for 10 min on the pipetting station deck. The DNA-transfection reagent complexes were then added to plates containing cells. To facilitate the screen, 10 μL of DNA-transfection reagent complexes were added in duplicates to the top 4 and bottom 4 rows, resulting in two identical 48-well arrays per plate. Plates with transfected cells were incubated for 18–20 h at 37 °C/5% CO2. A screen of each tracer across the entire library using two different concentrations requires duplicate plates of transfected cells. Depending on the number of tracers being screened, transfections can be scaled up using the same ratios. The next day, for each tracer, four 20× screening solutions in tracer dilution buffer (Promega) were prepared: two duplicates at final concentration of 20 μM and two duplicates at a final concentration of 2 μM. A competing unmodified compound was added to one of each duplicate at a final concentration of 400 μM. The four resulting solutions were diluted 4-fold in Opti-MEM without serum or phenol red to generate 5× solutions (5 µM and 0.5 µM tracer +/− 100 μM competing compound). To screen the library, a BioTek MultiFlo FX liquid dispenser was used to dispense 22.5 µL of tracer solution to the top 4 rows and 22.5 µL tracer + competing compound solution to the 4 bottom rows. Plates were briefly mixed on an orbital shaker and incubated for 1.5 h at room temperature. […]

In another assay the target is T4, ADRB1 (Homo sapiens, UniProt P08588).
T4 construct: purchased Promega (in-house HiBiT-GPCR construct library, NanoBRET)
The assay can be described thus: NanoBRET screen HiBiT-ADRB1 in HEK293. Type of assay: binding. The settings on record: ADRB1.

For the next assay, the target named is T5, OPRD1 (Homo sapiens, UniProt P41143).
T5 construct: purchased Promega (in-house HiBiT-GPCR construct library, NanoBRET)
Put plainly: NanoBRET screen HiBiT-OPRD1 in HEK293. The following applies: OPRD1. Type of assay: binding. How it is done: as §1, §2

In another assay the target is T6, ADRB2 (Homo sapiens, UniProt P07550).
T6 construct: purchased Promega (in-house HiBiT-GPCR construct library, NanoBRET)
Put plainly: NanoBRET screen HiBiT-ADRB2 in HEK293. In kind it is binding. The settings on record: ADRB2, other tracers/Quetiapine (unmodified). How it is done:
as §1, §2

In a further assay the test system is Dopamine receptors. Put plainly: Competitive displacement of Clozapine-a-2-NB590 by unmodified scaffold (NanoBRET). Type of assay: binding, human. The following applies: tracer Clozapine-a-2-NB590. The text has this: (§3) Finally, we opted to compare the machine learning predictions for the 17 scaffolds to the empirical NanoBRET evaluations across 36 GPCR families investigated by both strategies (Figure 7). The highest correlation between model-predicted and NanoBRET-confirmed interactions was found using minimal thresholds of ≥4% classification probability and ≥1.5-fold response, respectively (Figure S11). These thresholds provided the best balance between model accuracy and a low percentage of false predictions. Accordingly, machine learning predictions for all unmodified scaffolds were compiled (Figure S6) and those above the minimum 4% probability threshold were classified as positive interactions (Figure 7A). At the same time, empirical NanoBRET results for each scaffold were consolidated to include results for all relevant fluorescent tracer candidates screened at either 1 μM or 0.1 μM tracer concentrations. […] One caveat comparing model predictions to empirical NanoBRET evaluations is their use of unmodified versus fluorescently modified scaffolds, respectively. Therefore, model predictions not verified by BRET could in part be the result of fluorophore interference with binding interactions. […]

Assay [2] deals with 5-Hydroxytryptamine receptors. The description is as above. In kind it is binding, human. The following applies: tracer Clozapine-a-2-NB590.
From the text: as §3

The mark [3] stands for this setting: other tracers/Tolterodine (unmodified), 0.1μM.
Setting [4] is: other tracers/Tolterodine (unmodified), 1μM.
Setting [5] is: other tracers/Quetiapine (unmodified), 0.1μM.
[6] abbreviates: other tracers/Quetiapine (unmodified), 1μM.

Structures are written as SMILES.

T2 sequence (P35372 whole entry): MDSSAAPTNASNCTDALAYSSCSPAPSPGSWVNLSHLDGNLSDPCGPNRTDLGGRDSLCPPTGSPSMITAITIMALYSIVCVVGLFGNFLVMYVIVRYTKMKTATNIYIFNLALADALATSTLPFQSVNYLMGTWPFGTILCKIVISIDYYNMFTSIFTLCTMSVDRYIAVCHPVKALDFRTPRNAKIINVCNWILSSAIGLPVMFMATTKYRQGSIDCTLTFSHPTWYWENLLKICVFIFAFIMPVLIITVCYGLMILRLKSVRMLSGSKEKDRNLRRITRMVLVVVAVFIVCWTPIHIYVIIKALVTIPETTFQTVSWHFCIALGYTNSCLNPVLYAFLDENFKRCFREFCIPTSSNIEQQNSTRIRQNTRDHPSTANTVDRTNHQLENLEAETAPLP
T3 sequence (P41145 whole entry): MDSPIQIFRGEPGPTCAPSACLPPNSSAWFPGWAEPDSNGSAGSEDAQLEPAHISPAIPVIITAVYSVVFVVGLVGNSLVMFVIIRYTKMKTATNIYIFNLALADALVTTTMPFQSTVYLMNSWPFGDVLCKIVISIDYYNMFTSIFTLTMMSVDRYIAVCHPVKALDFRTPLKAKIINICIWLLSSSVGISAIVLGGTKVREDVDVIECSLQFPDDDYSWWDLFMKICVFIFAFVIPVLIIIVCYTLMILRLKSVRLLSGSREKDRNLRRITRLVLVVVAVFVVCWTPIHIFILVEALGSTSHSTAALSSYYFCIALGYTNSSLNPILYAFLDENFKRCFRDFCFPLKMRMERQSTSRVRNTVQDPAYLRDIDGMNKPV
T4 sequence (P08588 whole entry): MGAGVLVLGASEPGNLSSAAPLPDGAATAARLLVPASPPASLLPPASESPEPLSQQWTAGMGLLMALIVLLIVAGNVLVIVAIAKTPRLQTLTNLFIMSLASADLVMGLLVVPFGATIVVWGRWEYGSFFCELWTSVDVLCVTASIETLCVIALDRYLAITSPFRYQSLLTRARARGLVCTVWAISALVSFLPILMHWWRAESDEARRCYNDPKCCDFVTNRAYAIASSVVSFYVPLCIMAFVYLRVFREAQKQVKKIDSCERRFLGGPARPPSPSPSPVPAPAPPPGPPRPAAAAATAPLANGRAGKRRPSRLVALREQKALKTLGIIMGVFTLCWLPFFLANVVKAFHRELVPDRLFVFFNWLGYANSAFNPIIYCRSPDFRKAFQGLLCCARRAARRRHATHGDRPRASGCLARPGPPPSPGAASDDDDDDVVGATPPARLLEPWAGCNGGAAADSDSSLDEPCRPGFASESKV
T1 sequence (P13945 whole entry): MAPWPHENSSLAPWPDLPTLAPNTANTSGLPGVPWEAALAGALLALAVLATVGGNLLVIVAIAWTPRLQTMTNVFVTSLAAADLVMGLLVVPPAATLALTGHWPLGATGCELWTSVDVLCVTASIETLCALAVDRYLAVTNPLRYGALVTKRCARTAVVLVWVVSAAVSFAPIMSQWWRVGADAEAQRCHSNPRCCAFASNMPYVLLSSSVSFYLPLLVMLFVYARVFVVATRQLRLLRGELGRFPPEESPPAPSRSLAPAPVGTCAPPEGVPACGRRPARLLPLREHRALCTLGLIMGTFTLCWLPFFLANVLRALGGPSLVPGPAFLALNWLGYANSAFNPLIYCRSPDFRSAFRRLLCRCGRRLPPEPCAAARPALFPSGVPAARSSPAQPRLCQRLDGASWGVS
T5 sequence (P41143 whole entry): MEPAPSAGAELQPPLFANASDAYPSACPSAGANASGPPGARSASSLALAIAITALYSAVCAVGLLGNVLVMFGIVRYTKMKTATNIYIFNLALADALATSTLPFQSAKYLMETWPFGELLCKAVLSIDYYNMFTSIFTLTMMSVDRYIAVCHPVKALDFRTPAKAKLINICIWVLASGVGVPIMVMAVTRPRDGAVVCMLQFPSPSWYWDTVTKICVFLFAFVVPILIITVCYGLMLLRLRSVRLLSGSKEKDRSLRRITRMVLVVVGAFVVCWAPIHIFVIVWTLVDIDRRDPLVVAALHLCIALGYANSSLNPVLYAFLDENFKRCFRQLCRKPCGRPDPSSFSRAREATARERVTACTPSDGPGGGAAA
T6 sequence (P07550 whole entry): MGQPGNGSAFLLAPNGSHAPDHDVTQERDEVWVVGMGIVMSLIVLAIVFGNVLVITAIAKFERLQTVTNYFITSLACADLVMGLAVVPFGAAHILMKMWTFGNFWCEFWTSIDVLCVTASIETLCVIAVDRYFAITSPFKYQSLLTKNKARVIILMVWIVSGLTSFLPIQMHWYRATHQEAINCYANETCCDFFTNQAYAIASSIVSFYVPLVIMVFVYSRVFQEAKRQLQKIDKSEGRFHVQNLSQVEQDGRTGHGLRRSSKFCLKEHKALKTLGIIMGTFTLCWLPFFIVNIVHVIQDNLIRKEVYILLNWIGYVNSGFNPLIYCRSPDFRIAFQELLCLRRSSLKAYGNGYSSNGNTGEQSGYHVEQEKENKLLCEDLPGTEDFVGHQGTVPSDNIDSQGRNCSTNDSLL

In the case of `CCCn1c(=O)c2[nH]c(-c3ccc(OCC(=O)NCCN)cc3)nc2n(CCC)c1=O` [XAC (unmodified)], the “NanoBRET Fold Response, other tracers/XAC (unmodified)” value in assay [1] (ADRA1A, other tracer 0.1μM) is 3.51; in [1] (ADRA1A, other tracer 1μM), 1.56; in [1] (ADRA1B, other tracer 0.1μM), 1.61; in [1] (ADRA1B, other tracer 1μM), 1.32; in assay [1] (ADRA2A, other tracer 0.1μM), 1.12; in assay [1] (ADRA2A, other tracer 1μM) it was 1.14. The “NanoBRET Fold Response, other tracers/XAC (unmodified)” value in assay [1] (ADRA2B, other tracer 0.1μM) is given as 4.34; in assay [1] (ADRA2B, other tracer 1μM), 1.57; in assay [1] (ADRA2C, other tracer 0.1μM) it was 1.33.
With `Cc1ccc(O)c([C@H](CCN(C(C)C)C(C)C)c2ccccc2)c1` [Tolterodine (unmodified)], the “NanoBRET Fold Response” value is 1.01 at ADRB3 (setting [3]); 0.97 at OPRM1 (setting [3]); 0.99 on OPRK1 (setting [3]); 1.00 on OPRK1 (setting [4]); 0.99 on ADRB1 (setting [3]); 1.01 at ADRB1 (setting [4]). In addition, on OPRD1 (setting [4]), the “NanoBRET Fold Response” value amounted to 0.91.
As for `OCCOCCN1CCN(C2=Nc3ccccc3Sc3ccccc32)CC1` [Quetiapine (unmodified)], the “NanoBRET Fold Response” value at ADRB3 (setting [5]) stood at 1.11; at ADRB3 (setting [6]), 1.12; at OPRM1 (setting [5]), 1.29; on OPRM1 (setting [6]) it was 1.00; on OPRK1 (setting [5]), 1.76; on OPRK1 (setting [6]), 0.99. Also, the “NanoBRET Fold Response” value at ADRB1 (setting [5]) amounted to 1.33; on ADRB1 (setting [6]), 1.09; on ADRB2 (0.1μM) it was 1.07; on ADRB2 (1μM), 1.33; at OPRD1 (setting [5]) it was 1.31; on OPRD1 (setting [6]) it was 1.06.
As to `CCCn1c(=O)c2[nH]c(-c3ccc(OCC(=O)NCCN)cc3)nc2n(CCC)c1=O` [XAC, Xanthine amine congener, reference compound], the “Interaction verified via competitive displacement of tracer” value in assay [1] was “additional interactions”.
On to `N#CNC(=NCCCOc1cccc(CN2CCCCC2)c1)NCCNC(=O)c1ccc(N)cc1` [Aminopotentidine], for which the “Interaction verified via competitive displacement of tracer” value (in assay [1]; in the assay on Dopamine receptors; in assay [2]) was “verify additional interactions” in each case.
